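1) Cells in 96-well plates. 2) Compound, 48 h, 5 concentrations. 3) Linear interpolation between surrounding doses. 4) Unreached endpoint = highest concentration. TGI: concentration producing complete growth inhibition.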
Columns and labels:
Assay in all cases: NCI anticancer screen, dose series, 48 h
MOLT-4 leukemia = test system: MOLT-4 leukemia
OVCAR-4 ovarian = test system: OVCAR-4 ovarian
SNB-75 CNS = test system: SNB-75 CNS
SK-MEL-2 melanoma = test system: SK-MEL-2 melanoma
SF-539 CNS = test system: SF-539 CNS
HOP-18 NSCLC = test system: HOP-18 NSCLC
SF-268 CNS = test system: SF-268 CNS
RXF-631 renal = test system: RXF-631 renal
KM12 colon = test system: KM12 colon
RPMI-8226 leukemia = test system: RPMI-8226 leukemia
UACC-257 melanoma = test system: UACC-257 melanoma
SK-MEL-28 melanoma = test system: SK-MEL-28 melanoma
HCC-2998 colon = test system: HCC-2998 colon
EKVX NSCLC = test system: EKVX NSCLC
HOP-62 NSCLC = test system: HOP-62 NSCLC
COLO 205 colon = test system: COLO 205 colon
KM20L2 colon = test system: KM20L2 colon
SW-620 colon = test system: SW-620 colon
SNB-19 CNS = test system: SNB-19 CNS
SK-OV-3 ovarian = test system: SK-OV-3 ovarian
ACHN renal = test system: ACHN renal
M14 melanoma = test system: M14 melanoma
A549 NSCLC = test system: A549 NSCLC
M19-MEL melanoma = test system: M19-MEL melanoma
MALME-3M melanoma = test system: MALME-3M melanoma
DMS 114 small cell lung = test system: DMS 114 small cell lung
CCRF-CEM leukemia = test system: CCRF-CEM leukemia
DMS 273 small cell lung = test system: DMS 273 small cell lung
NCI-H23 lung = test system: NCI-H23 lung
SN12C renal = test system: SN12C renal
SF-295 CNS = test system: SF-295 CNS
786-0 renal = test system: 786-0 renal
OVCAR-8 ovarian = test system: OVCAR-8 ovarian
HCT-116 colon = test system: HCT-116 colon
HCT-15 colon = test system: HCT-15 colon
U251 CNS = test system: U251 CNS
LOX IMVI melanoma = test system: LOX IMVI melanoma
SK-MEL-5 melanoma = test system: SK-MEL-5 melanoma
IGROV1 ovarian = test system: IGROV1 ovarian
OVCAR-5 ovarian = test system: OVCAR-5 ovarian
HT29 colon = test system: HT29 colon
A498 renal = test system: A498 renal
SNB-78 CNS = test system: SNB-78 CNS
UACC-62 melanoma = test system: UACC-62 melanoma
UO-31 renal = test system: UO-31 renal
TK-10 renal = test system: TK-10 renal
CAKI-1 renal = test system: CAKI-1 renal
K-562 leukemia = test system: K-562 leukemia
XF 498 CNS = test system: XF 498 CNS
OVCAR-3 ovarian = test system: OVCAR-3 ovarian
NCI-H460 lung = test system: NCI-H460 lung
NCI-H226 lung = test system: NCI-H226 lung
DLD-1 colon = test system: DLD-1 colon
HL-60(TB) leukemia = test system: HL-60(TB) leukemia
NCI-H522 lung = test system: NCI-H522 lung
LXFL 529 NSCLC = test system: LXFL 529 NSCLC
RXF 393 renal = test system: RXF 393 renal
HOP-92 NSCLC = test system: HOP-92 NSCLC

c1ccc(C(c2ccccc2)c2ccncc2)cc1
TGI (MOLT-4 leukemia): > 100 µM | TGI (OVCAR-4 ovarian): > 100 µM | TGI (SNB-75 CNS): 74.3 µM | TGI (SK-MEL-2 melanoma): > 100 µM | TGI (SF-539 CNS): > 100 µM | TGI (HOP-18 NSCLC): > 100 µM | TGI (SF-268 CNS): > 100 µM | TGI (RXF-631 renal): > 100 µM | TGI (KM12 colon): > 100 µM | TGI (RPMI-8226 leukemia): > 100 µM | TGI (UACC-257 melanoma): > 100 µM | TGI (SK-MEL-28 melanoma): > 100 µM | TGI (HCC-2998 colon): > 100 µM | TGI (EKVX NSCLC): > 100 µM | TGI (HOP-62 NSCLC): > 100 µM | TGI (COLO 205 colon): > 100 µM | TGI (KM20L2 colon): > 100 µM | TGI (SW-620 colon): > 100 µM | TGI (SNB-19 CNS): > 100 µM | TGI (SK-OV-3 ovarian): > 100 µM | TGI (ACHN renal): > 100 µM | TGI (M14 melanoma): > 100 µM | TGI (A549 NSCLC): > 100 µM | TGI (M19-MEL melanoma): > 100 µM | TGI (MALME-3M melanoma): > 100 µM | TGI (DMS 114 small cell lung): > 100 µM | TGI (CCRF-CEM leukemia): > 100 µM | TGI (DMS 273 small cell lung): > 100 µM | TGI (NCI-H23 lung): > 100 µM | TGI (SN12C renal): > 100 µM | TGI (SF-295 CNS): > 100 µM | TGI (786-0 renal): > 100 µM | TGI (OVCAR-8 ovarian): > 100 µM | TGI (HCT-116 colon): > 100 µM | TGI (HCT-15 colon): > 100 µM | TGI (U251 CNS): > 100 µM | TGI (LOX IMVI melanoma): > 100 µM | TGI (SK-MEL-5 melanoma): > 100 µM | TGI (IGROV1 ovarian): > 100 µM | TGI (OVCAR-5 ovarian): > 100 µM | TGI (HT29 colon): > 100 µM | TGI (A498 renal): > 100 µM | TGI (SNB-78 CNS): > 100 µM | TGI (UACC-62 melanoma): > 100 µM | TGI (UO-31 renal): > 100 µM | TGI (TK-10 renal): > 100 µM | TGI (CAKI-1 renal): > 100 µM | TGI (K-562 leukemia): > 100 µM | TGI (XF 498 CNS): > 100 µM | TGI (OVCAR-3 ovarian): > 100 µM | TGI (NCI-H460 lung): > 100 µM | TGI (NCI-H226 lung): > 100 µM | TGI (DLD-1 colon): > 100 µM

COc1ccc(N(CC(=O)O)S(=O)(=O)c2ccccc2)cc1
TGI (MOLT-4 leukemia): > 100 µM | TGI (OVCAR-4 ovarian): > 100 µM | TGI (HL-60(TB) leukemia): > 100 µM | TGI (SK-MEL-2 melanoma): > 100 µM | TGI (SF-539 CNS): > 100 µM | TGI (HOP-18 NSCLC): > 100 µM | TGI (RXF-631 renal): > 100 µM | TGI (NCI-H522 lung): > 100 µM | TGI (KM12 colon): > 100 µM | TGI (RPMI-8226 leukemia): > 100 µM | TGI (UACC-257 melanoma): > 100 µM | TGI (EKVX NSCLC): > 100 µM | TGI (COLO 205 colon): > 100 µM | TGI (KM20L2 colon): > 100 µM | TGI (LXFL 529 NSCLC): > 100 µM | TGI (SW-620 colon): > 100 µM | TGI (SNB-19 CNS): > 100 µM | TGI (SK-OV-3 ovarian): > 100 µM | TGI (ACHN renal): > 100 µM | TGI (M14 melanoma): > 100 µM | TGI (A549 NSCLC): > 100 µM | TGI (M19-MEL melanoma): > 100 µM | TGI (MALME-3M melanoma): > 100 µM | TGI (CCRF-CEM leukemia): > 100 µM | TGI (DMS 273 small cell lung): > 100 µM | TGI (RXF 393 renal): > 100 µM | TGI (NCI-H23 lung): > 100 µM | TGI (SN12C renal): > 100 µM | TGI (SF-295 CNS): > 100 µM | TGI (786-0 renal): > 100 µM | TGI (OVCAR-8 ovarian): > 100 µM | TGI (HCT-15 colon): > 100 µM | TGI (U251 CNS): > 100 µM | TGI (LOX IMVI melanoma): > 100 µM | TGI (SK-MEL-5 melanoma): > 100 µM | TGI (IGROV1 ovarian): > 100 µM | TGI (OVCAR-5 ovarian): > 100 µM | TGI (HOP-92 NSCLC): > 100 µM | TGI (HT29 colon): > 100 µM | TGI (A498 renal): > 100 µM | TGI (UACC-62 melanoma): > 100 µM | TGI (UO-31 renal): > 100 µM | TGI (TK-10 renal): > 100 µM | TGI (CAKI-1 renal): > 100 µM | TGI (K-562 leukemia): > 100 µM | TGI (XF 498 CNS): > 100 µM | TGI (OVCAR-3 ovarian): > 100 µM | TGI (NCI-H460 lung): > 100 µM | TGI (NCI-H226 lung): > 100 µM | TGI (DLD-1 colon): > 100 µM
